According to patent US11666562B2, “Ilaprazole for inhibiting the release of enveloped viruses from cells” (Northwestern University, priority 2020, dated 2023):
“Also recorded” adds a separate entry of the source.

Experiments:
DHPH = test: FTS assay against unrelated protein DHPH; assay type: binding, human
Source text: (§1) FIG. 1. Thermal shift data of Tsg101 by lead compound Tenatoprazole (N16). […] (B) Thermal shift data of three human proteins, DHPH, ENO1, and MEK4 not related to Tsg101 by lead compound tenatoprazole. […] (C) The addition of DTT abolishes the Tm shift in the FTS assay, consistent with prazole compounds forming a disulfide bond to Tsg101. Rabe: Rabeprazole, Ila: Ilaprazole, Tenato: tenatoprazole, Panto: pantoprazole, ref: reference.
(§2) This specific binding is consistent with a previous NMR structure in which tenatoprazole forms a covalent disulfide bond to Cys73 in the UEV domain of the protein (5). This disulfide bond formation can be prevented by including the reducing agent DTT in the assay (FIG. 1C). The addition of DTT abolished the Tsg101-UEV Tm shift caused by the prazoles. […]
(§3) Fluorescence thermal shift (FTS) screening to identify small molecule binding to Tsg101-UEV. […] Discovery of small molecule binding to target protein utilizes the observation that ligand binding affects protein thermal stability, and therefore can be detected through a shift in the protein's thermal denaturation (melting) temperature (Tm). […] A fluorescence dye Sypro-Orange (Invitrogen) was used for assay detection. The dye is excited at 473 nm and has a fluorescence emission at 610 nm. […] Fluorescence was detected on a real-time PCR machine CFX384 (Bio-Rad Laboratories).

MEK4 = biological target: T1, MEK4 (Homo sapiens, UniProt P45985); test: FTS assay against unrelated protein MEK4; assay type: binding
T1 sequence (P45985 1-399): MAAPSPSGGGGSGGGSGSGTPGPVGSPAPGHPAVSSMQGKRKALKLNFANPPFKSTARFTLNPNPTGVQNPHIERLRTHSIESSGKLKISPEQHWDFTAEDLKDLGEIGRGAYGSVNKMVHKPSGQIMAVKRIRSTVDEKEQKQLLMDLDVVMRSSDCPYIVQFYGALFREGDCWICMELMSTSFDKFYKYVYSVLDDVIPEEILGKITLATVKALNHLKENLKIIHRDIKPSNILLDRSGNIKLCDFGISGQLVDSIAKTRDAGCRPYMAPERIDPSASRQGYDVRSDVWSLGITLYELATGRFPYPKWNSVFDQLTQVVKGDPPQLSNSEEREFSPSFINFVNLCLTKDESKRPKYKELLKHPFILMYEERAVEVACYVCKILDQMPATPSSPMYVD
Source text: as §1, §2, §3

ENO1 = ENO1 (Homo sapiens, UniProt P06733); test: FTS assay against unrelated protein ENO1; assay type: binding
Chain of ENO1 (P06733 whole entry): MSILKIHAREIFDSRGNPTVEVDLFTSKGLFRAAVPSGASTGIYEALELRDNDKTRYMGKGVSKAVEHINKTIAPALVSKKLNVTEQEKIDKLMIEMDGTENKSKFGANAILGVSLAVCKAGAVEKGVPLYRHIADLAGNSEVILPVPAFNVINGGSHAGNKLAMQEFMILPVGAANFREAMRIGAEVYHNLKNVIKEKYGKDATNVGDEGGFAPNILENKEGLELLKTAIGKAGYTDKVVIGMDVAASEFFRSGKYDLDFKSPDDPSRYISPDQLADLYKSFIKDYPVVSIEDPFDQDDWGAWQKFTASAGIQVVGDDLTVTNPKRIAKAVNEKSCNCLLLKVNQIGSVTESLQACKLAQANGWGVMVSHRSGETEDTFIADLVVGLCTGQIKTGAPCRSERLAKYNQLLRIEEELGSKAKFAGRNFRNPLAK
Source text: as §1, §2, §3

HSV-1 = test: Transmission electron microscopy of HSV-1 infected Vero cells, location of virus particles; assay type: cell-based, Herpes simplex virus-1 (Kos strain); conditions: HSV-1, 18 μM ilaprazole, 24 h
Procedure: FIG. 4. Inhibitory effect of Ilaprazole on HSV-2 and HSV-1 production. Vero cells infected with HSV-2 or HSV-1 at MOI of 0.1 and examined by transmission electron microscopy 24 h later. HSV-2 infected untreated cells (A & B) and cells treated with 18 μM ilaprazole (C & D). HSV-1 infected untreated cells (E & F) and cells treated with 18 μM ilaprazole (G & H). Eighty cells where virus particles were observed were examined. In the presence of ilaprazole, we observe no or very few particles in the cytoplasm. Treated cells also have an accumulation of electron dense material and particles associated with them. In untreated HSV-2 infected cells, we observed an average of 120 particles ranging from 28-204 […], and an average of 16 particles ranging from 10-22 in the nucleus. In treated HSV-2 infected cells, we observed 0 particles in the cytoplasm and an average of 31 particles ranging from 9-56 in the nucleus. In untreated HSV-1 infected cells we observed an average of 135 particles ranging from 12-152 in the cytoplasm, and an average of 35 particles ranging from 10-66 in the nucleus. In treated HSV-1 infected cells, we observed 0 particles in the cytoplasm and an average of 43 particles ranging from 15-166 in the nucleus. Arrows point to virus particles. Nuc, nucleus. Cyt, cytoplasm.
We next carried out a transmission electron microscopic examination of cells infected with HSV-2 at a MOI 0.1 in the presence and absence of 18 μM ilaprazole to determine if this drug causes the accumulation of virus particles in the nucleus of cells similar to tenatoprazole. […] In both heavily infected cells (FIGS. 4A & C) and mildly infected cells (FIGS. 4B & D), treatment lead to particles being detected in the nucleus and arrayed along the nuclear membrane but lacking in the cytosol. […] The lower total infectious virus detected in Table 3 (FIG. 7) is consistent with blockage of the virus passaging out of the nucleus into the cytoplasm where membranes are exchanged and virus becomes infectious. […]

Compound	Effect on thermal stability (Tm shift) of DHPH (DHPH)	Effect on thermal stability (Tm shift) of MEK4 (MEK4)	Effect on thermal stability (Tm shift) of ENO1 (ENO1)	Average number of virus particles in the nucleus (HSV-1)	Range of number of virus particles in the nucleus (HSV-1)	Virus particles in the cytoplasm (HSV-1)
COc1ccc2[nH]c([S+]([O-])Cc3ncc(C)c(OC)c3C)nc2n1 (stereo not drawn) [Tenatoprazole]	negligible; also recorded: did not observe a Tm shift	negligible; also recorded: did not observe a Tm shift	negligible; also recorded: did not observe a Tm shift			
COc1ccnc(C[S+]([O-])c2nc3ccc(-n4cccc4)cc3[nH]2)c1C (stereo not drawn) [Ilaprazole, 2-[(4-methoxy-3-methylpyridin-2-yl)methylsulfinyl]-6-pyrrol-1-yl-1H-benzimidazole]				43 particles	15-166 particles	0 particles
